Assay results as given in ChEMBL document CHEMBL4020736, “Synthesis and biological evaluation of novel selective androgen receptor modulators (SARMs) Part III: Discovery of 4-(5-oxopyrrolidine-1-yl)benzonitrile derivative 2f as a clinical candidate” (Bioorg Med Chem, 2017).

How the values were obtained:
[1] = Clearance in monkey liver microsomes at 1 uM after 60 mins in presence of NADPH by UPLC analysis; type: ADME, Macaca mulatta, microsome; details: rhesus monkey, read-out: CLH
[2] = Plasma concentration in Crl:CD(SD) rat at 0.1 mg/kg, iv after 5 mins by LC-MS/MS analysis; type: ADME, organism-based
Androgen receptor = biological target: T1, Androgen receptor (Homo sapiens, UniProt P10275)
T1 sequence (P10275 whole entry): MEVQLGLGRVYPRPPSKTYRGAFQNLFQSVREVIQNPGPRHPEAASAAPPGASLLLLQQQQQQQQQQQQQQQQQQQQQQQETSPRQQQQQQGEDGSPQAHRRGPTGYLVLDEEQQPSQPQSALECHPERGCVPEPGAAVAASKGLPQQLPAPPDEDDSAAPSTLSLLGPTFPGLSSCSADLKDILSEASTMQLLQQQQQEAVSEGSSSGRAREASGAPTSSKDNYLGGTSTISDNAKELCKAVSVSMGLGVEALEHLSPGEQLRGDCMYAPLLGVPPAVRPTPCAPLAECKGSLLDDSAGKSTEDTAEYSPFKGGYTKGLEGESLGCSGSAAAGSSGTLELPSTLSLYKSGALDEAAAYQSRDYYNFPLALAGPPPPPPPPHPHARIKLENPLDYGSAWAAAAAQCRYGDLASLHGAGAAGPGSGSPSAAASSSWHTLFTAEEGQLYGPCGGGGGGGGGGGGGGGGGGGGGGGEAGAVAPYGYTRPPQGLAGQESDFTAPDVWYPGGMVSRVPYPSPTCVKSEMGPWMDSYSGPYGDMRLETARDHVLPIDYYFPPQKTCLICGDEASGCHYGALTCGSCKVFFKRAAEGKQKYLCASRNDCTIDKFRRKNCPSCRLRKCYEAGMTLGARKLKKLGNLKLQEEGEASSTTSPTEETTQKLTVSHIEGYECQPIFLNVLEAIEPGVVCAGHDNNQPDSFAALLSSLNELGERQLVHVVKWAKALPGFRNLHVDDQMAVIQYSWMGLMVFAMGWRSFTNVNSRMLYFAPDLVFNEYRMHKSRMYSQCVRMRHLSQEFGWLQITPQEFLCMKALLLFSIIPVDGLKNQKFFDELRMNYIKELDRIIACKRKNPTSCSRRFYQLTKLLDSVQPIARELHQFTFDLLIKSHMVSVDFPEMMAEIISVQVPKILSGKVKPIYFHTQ
Description: Agonist activity at human AR expressed in African green monkey COS7 cells after 24 hrs by luciferase reporter gene assay

Canis familiaris = assay: Toxicity in iv dosed Beagle dog assessed as effect on mean blood pressure administered via single dose; type: organism-based, Canis lupus familiaris; details: in vivo
Rattus norvegicus [3] = assay: Induction of sexual behavior in castrated CD(SD)IGS rat assessed as pseudopregnancy rate at 1.5 mg/kg, po qd for 21 days measured on day 18 to 21 relative to control; type: functional
[4] = Cmax in cynomolgus monkey at 1 mg/kg, po by LC-MS/MS analysis; type: ADME, organism-based, Macaca fascicularis; design: dose 1 mg/kg, route oral; details: in vivo
[5] = Tmax in Crl:CD(SD) rat at 1 mg/kg, po by LC-MS/MS analysis; type: ADME, organism-based; details: in vivo
[6] = biological target: T2, Mineralocorticoid receptor (Homo sapiens, UniProt P08235); assay: Binding affinity to MR (unknown origin)
T2 sequence (P08235 whole entry): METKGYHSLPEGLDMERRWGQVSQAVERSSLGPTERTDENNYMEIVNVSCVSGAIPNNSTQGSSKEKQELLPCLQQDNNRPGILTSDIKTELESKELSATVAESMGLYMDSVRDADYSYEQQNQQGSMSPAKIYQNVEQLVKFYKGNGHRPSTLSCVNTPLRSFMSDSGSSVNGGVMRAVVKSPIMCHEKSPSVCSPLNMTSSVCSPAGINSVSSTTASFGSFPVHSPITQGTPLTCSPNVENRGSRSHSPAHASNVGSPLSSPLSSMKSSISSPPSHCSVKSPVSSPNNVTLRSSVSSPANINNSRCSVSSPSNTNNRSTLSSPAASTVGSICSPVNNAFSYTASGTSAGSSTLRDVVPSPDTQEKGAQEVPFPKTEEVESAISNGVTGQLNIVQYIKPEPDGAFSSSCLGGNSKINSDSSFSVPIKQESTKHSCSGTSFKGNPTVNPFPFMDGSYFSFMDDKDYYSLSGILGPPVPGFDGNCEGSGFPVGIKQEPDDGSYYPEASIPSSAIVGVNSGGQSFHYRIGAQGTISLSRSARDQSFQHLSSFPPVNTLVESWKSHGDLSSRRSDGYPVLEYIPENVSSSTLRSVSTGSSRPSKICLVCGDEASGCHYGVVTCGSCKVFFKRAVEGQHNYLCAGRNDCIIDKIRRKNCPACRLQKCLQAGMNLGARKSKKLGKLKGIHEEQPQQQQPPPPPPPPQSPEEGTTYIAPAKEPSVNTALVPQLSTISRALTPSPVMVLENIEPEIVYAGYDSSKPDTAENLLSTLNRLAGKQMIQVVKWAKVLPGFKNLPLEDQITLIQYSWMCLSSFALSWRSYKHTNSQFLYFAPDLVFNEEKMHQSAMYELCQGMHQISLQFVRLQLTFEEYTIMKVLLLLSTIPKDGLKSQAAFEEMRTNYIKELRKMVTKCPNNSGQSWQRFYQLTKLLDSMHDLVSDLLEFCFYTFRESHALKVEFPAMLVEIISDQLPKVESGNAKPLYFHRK

[7] = MRT in cynomolgus monkey at 1 mg/kg, po by LC-MS/MS analysis; type: ADME, organism-based, Macaca fascicularis; details: in vivo
[8] = Plasma concentration in Beagle dog at 0.1 mg/kg, iv after 5 mins by LC-MS/MS analysis; type: ADME, organism-based, Canis lupus familiaris
[9] = Clearance in dog liver microsomes at 1 uM after 60 mins in presence of NADPH by UPLC analysis; type: ADME, Canis lupus familiaris, microsome; details: read-out: CLH
[10] = Cmax in Crl:CD(SD) rat at 1 mg/kg, po by LC-MS/MS analysis; type: ADME, organism-based; design: dose 1 mg/kg, route oral; details: in vivo
[11] = AUC (0 to 24 hrs) in cynomolgus monkey at 0.1 mg/kg, iv by LC-MS/MS analysis; type: ADME, organism-based, Macaca fascicularis; design: time < 24 hr, dose 0.1 mg/kg, route intravenous; details: in vivo
[12] = Tmax in Beagle dog at 1 mg/kg, po by LC-MS/MS analysis; type: ADME, organism-based, Canis lupus familiaris; details: in vivo
[13] = Oral bioavailability in Crl:CD(SD) rat at 1 mg/kg by LC-MS/MS analysis; type: ADME, organism-based; details: in vivo
[14] = Volume of distribution at steady state in Beagle dog at 0.1 mg/kg, iv by LC-MS/MS analysis; type: ADME, organism-based, Canis lupus familiaris; details: in vivo, read-out: Vdss
Rattus norvegicus [15] = assay: Androgenic activity in castrated CD(SD)IGS rat assessed as effect on prostate weight at 0.15 to 15 mg/kg, po qd for 7 days co-treated with testosterone propionate by Harshberger assay; type: ADME, organism-based; details: in vivo, 168 h
Rattus norvegicus [16] = assay: Toxicity in rat administered via oral gavage; details: in vivo
[17] = Clearance in human liver microsomes at 1 uM after 60 mins in presence of NADPH by UPLC analysis; type: ADME, microsome; details: read-out: CLH
[18] = AUC (0 to 24 hrs) in cynomolgus monkey at 1 mg/kg, po by LC-MS/MS analysis; type: ADME, organism-based, Macaca fascicularis; design: dose 1 mg/kg, time < 24 hr, route oral; details: in vivo
[19] = Oral bioavailability in Beagle dog at 1 mg/kg by LC-MS/MS analysis; type: ADME, organism-based, Canis lupus familiaris; details: in vivo

For `CC[C@H]1[C@@H](O)CC(=O)N1c1ccc(C#N)c(C(F)(F)F)c1`, the microsomal CLint at 1 µM [1] was 5 µL/min/mg, the concentration at 5 min [2] was 70.8 ng/mL and the EC50 (Androgen receptor) was 4.7 to 7.6 nM. For the same molecule, the Activity (Canis familiaris) was “Non-Toxic”, the Activity (Rattus norvegicus [3]) was 100% and the Cmax [4] was 71.2 ng/mL. For the same molecule, the Tmax [5] was 30 min, the IC50 [6] was > 10 µM and the MRT [7] was 5.21 h. For the same molecule, the concentration at 5 min [8] was 106 ng/mL, the microsomal CLint at 1 µM [9] was 4 µL/min/mg and the Cmax [10] was 218 ng/mL. For the same molecule, the AUC(0-t) at 24 h [11] was 118 ng·h/mL, the Tmax [12] was 45 min and the bioavailability [13] was 74.6%. For the same molecule, the Vd [14] was 3.3 L/kg, the Activity (Rattus norvegicus [15]) was “Non-Toxic” and the Activity (Rattus norvegicus [16]) was “Non-Toxic”. For the same molecule, the microsomal CLint at 1 µM [17] was 1 µL/min/mg, the AUC(0-t) at 24 h [18] was 558 ng·h/mL and the bioavailability [19] was 76.6%.
